Data set [1] relates to NKT cells / CD11c+ dendritic cells. Put plainly: CD86 expression on splenic dendritic cells after injection (DC activation as measure of NKT cell activation). The class given is in vivo, C57BL/6 mice. Particulars: 200 ng i.v. (FIG. 7: molar equivalent of 200 ng α-GalCer), spleens removed 20 h later, flow cytometry. How it is done:
Groups of C57BL/6 mice (n=3) are injected intravenously with 200 ng of the indicated compounds and then the spleens are removed 20 h later for the analysis of CD86 expression on CD11c+ dendritic cells by antibody labelling and flow cytometry. Mean fluorescence index±SEM are presented.
Groups of C57BL/6 mice (n=3) are injected intravenously with 200 ng of α-GalCer or an equivalent molar amount of the indicated compounds and then the spleens are removed 20 h later for the analysis of CD86 expression on CD11c+ dendritic cells by antibody labelling and flow cytometry. Mean fluorescence index±SEM are presented. (Compound CN158A1b=CN158 formulated in accordance with Example 15. Compound CN158A=CN158 in water.)
Each compound of the invention is supplied as formulated product (see example 12), and diluted in phosphate-buffered saline (PBS) for injection (200 ng/mouse) by intravenous injection into the lateral tail vein. In humans the expected therapeutic dose lies in the 50-4800 (μg/m^2) range (Giaccone, Punt et al. 2002). Note, 200 ng in a mouse is a human equivalent dose of 30 μg/m^2.
All antibody labeling is performed on ice in FACS buffer (PBS supplemented with 1% FCS, 0.05% sodium azide, and 2 mM EDTA). Non-specific FcR-mediated antibody staining is blocked by incubation for 10 min with anti-CD16/32 Ab (24G2, prepared in-house from hybridoma supernatant). […]
In general terms: Flow cytometry measures light scatter and fluorescence of single cells or particles in a stream.

Data set [2] in a line: HPLC-ESI-MSMS quantification of α-GalCer in test samples. The class given is physicochemical. How it is done:
Quantification of the amount of α-GalCer in various test samples of compounds of the invention is made by HPLC-ESI-MSMS analysis using a Waters 2795 HPLC and a Waters Q-TOF Premier™ Tandem Mass Spectrometer. The chromatography used a Phenomenex Kinetex C18 […] 3.0×50 mm column eluting with isocratic methanol containing 10 mM ammonium formate+0.5% formic acid at a flow rate of 0.2 mL/min. α-GalCer is monitored by selective reactant monitoring of 858.7 to 696.7 Da. The estimate of amount of α-GalCer is made by comparison of ion count integrals to a standard curve run on the same day or by comparison to test samples spiked with a known amount of α-GalCer.
The level of α-GalCer is determined on freshly reconstituted formulated samples unless otherwise stated. The estimated maximum level of α-GalCer for key compounds is given below.

The test system of the next data set is B16.OVA melanoma cells. The data set can be described thus: Anti-tumour activity against subcutaneous B16.OVA tumours, given with OVA protein. To be noted: i.v. with 200 μg OVA protein seven days after tumour challenge. The class given is in vivo, C57BL/6 mice. The procedure: Progression of subcutaneous B16.OVA tumours is monitored in animals that are treated seven days after tumour challenge with intravenous OVA protein together with the indicated compounds, or treated with PBS. The mean tumour sizes per group (n=5)±SEM are shown.
Progression of subcutaneous B16.OVA tumours is monitored in animals that are treated seven days after tumour challenge with intravenous OVA protein together with the indicated compounds, or treated with PBS. The mean tumour sizes per group (n=5)±SEM are shown. […] (Compound CN158A=CN158 in water.)
Groups of C57BL/6 mice (n=5) receive a subcutaneous injection into the flank of 1×10^5 B16.OVA melanoma cells, which express a cDNA encoding the chicken ovalbumin (OVA) sequence. The different groups are treated 7 days later, when tumours are fully engrafted, by intravenous injection of one of the following; 200 μg OVA protein together with 200 ng α-GalCer, 200 μg OVA protein together with 200 ng of a compound of the invention, or PBS. Mice are monitored for tumour growth every 3-4 days, and tumour size for each group is calculated as the mean of the products of bisecting diameters (±SEM). Measurements are terminated for each group when the first animal develops a tumour exceeding 200 mm^2.

Data set [3] relates to SIINFEKL-specific T cells. Put plainly: Peptide-specific T cell proliferation in vivo (adjuvant with OVA). Particulars: co-administered i.v. with OVA, molar dose equivalent to α-GalCer, blood after seven days. Details: species or system C57BL/6 mice. The procedure: The compounds are injected to give the equivalent molar dose as compared to α-GalCer. To increase sensitivity of the assay, all mice are initially donated a cohort of 10,000 SIINFEKL-specific T cells from a transgenic mouse encoding a T cell receptor for this antigen (OT-1 mice), which is undertaken by intravenous injection of the cells one day before the vaccines are administered. […] It is therefore possible to enumerate SIINFEKL-specific T cells in blood by flow cytometry using antibodies for CD45.1 together with antibodies for the transgenic T cell receptor (Vα2). […] Control animals are injected with the diluent phosphate-buffered saline (PBS). Each dot represents a different animal; mean per treatment group±SEM are presented. ***p<0.001, ** p<0.01, * p<0.05.
Pooled lymph node cell suspensions are prepared from animals of a cross between OT-I mice, which express a transgenic T cell receptor (TCR) specific for the ovalbumin epitope SIINFEKL in the context of H-2K^b molecules, and B6.SJL-Ptprc^a Pepc^b/BoyJ mice, which are congenic with C57BL/6 mice for the CD45.1^+ marker. The samples are enriched for CD8^+ cells using antibody coated magnetic beads (Miltenyi), and then transferred into C57BL/6 mice (1×10^4 per mouse). Groups of recipient animals (n=5) are immunized with compounds of the invention one day later. Doses are chosen to provide equivalent molar values of SIINFEKL peptide. […]

For data set [4] the following is noted: literature statement; cited from earlier work.
Data set [5] has as its system cytokines IL-12p70, IL-4 and IFN-g. Put plainly: Cytokine release into serum after injection (cytokine bead array). The class given is in vivo, C57BL/6 mice. Particulars: for cytokine profile in vivo compared to α-GalCer: 200 ng i.v. or molar equivalent. The procedure:
Groups of C57BL/6 mice (n=3 per group) are injected intravenously with 200 ng of the indicated compounds, and then the serum is collected at the indicated times for analysis of cytokine levels by cytokine bead array technology.
Groups of C57BL/6 mice (n=3 per group) are injected intravenously with 200 ng of α-GalCer or an equivalent molar amount of the indicated compounds, and then the serum is collected at the indicated times for analysis of cytokine levels by cytokine bead array technology. (Compound CN158A1b=CN158 formulated in accordance with Example 15; Compound CN158A=CN158 in water.)
Blood is collected from the lateral tail vein at different time intervals after glycolipid administration. Serum is collected after blood has clotted, and levels of cytokines IL-12p70, IL-4 and IFN-g are assessed by cytokine bead array technology (Bioplex, Biorad), according to the manufacturer's instructions.

The nature of a further data set: Water solubility. The class given is physicochemical.
The mark [6] stands for this setting: non-formulated / unformulated sample (CN158*: aqueous solution).
Where [7] appears, read: freshly reconstituted formulated sample, estimated maximum level.

Entries after “also recorded” stand apart in the source; their conditions may differ.

As to `CCCCCCCCCCCCCCCCCCCCCCCCCC(=O)O[C@H](CCCCCCCCCCCCCC)[C@@H](O)[C@@H](N)CO[C@H]1O[C@H](CO)[C@H](O)[C@H](O)[C@H]1O` [CN089, (2S,3S,4R)-2-Amino-1-O-α-D-galactopyranosyl-4-O-hexacosanoyl octadecane-1,3,4-triol], in data set [1], the “DC activation: CD86 expression on splenic CD11c+ dendritic cells” value was “potently activates DCs”. In addition, the “conversion of CN089 to α-GalCer after formulation” value in data set [2] (within 1 hour of formulation, LCMSMS) was “approximately 50%”.
On to `CCCCCCCCCCCCCCCCCCCCCCCCCC(=O)O[C@H](CCCCCCCCCCCCCC)[C@@H](O)[C@H](CO[C@H]1O[C@H](CO)[C@H](O)[C@H](O)[C@H]1O)NC(=O)OCOP(=O)(O)O` [CN131, (2S,3S,4R)-1-O-α-D-Galactopyranosyl-4-O-hexacosanoyl-2-phosphoryloxymethoxycarbonylamino octadecane-1,3,4-triol], for which, in data set [2] (setting [6]), the “Max α-GalCer (ppm)” value was 6,000 (analysis on non- ppm and the “Max α-GalCer/injection” value stood at 1.2 ng.
Take `CCCCCCCCCCCCCCCCCCCCCCCCCC(=O)O[C@H](CCCCCCCCCCCCCC)[C@@H](O)[C@H](CO[C@H]1O[C@H](CO)[C@H](O)[C@H](O)[C@H]1O)NC(=O)OCOC(C)=O` [CN136, (2S,3S,4R)-2-Acetoxymethoxycarbonylamino-1-O-α-D-galactopyranosyl-4-O-hexacosanoyl octadecane-1,3,4-triol]: in data set [2] (setting [7]), the “Max α-GalCer (ppm)” value is on record as 1,000 ppm and the “Max α-GalCer/injection” value is 0.2 ng.
With `CCCCCCCCCCCCCCCCCCCCCCCCCC(=O)N[C@@H](CO[C@H]1O[C@H](CO)[C@H](O)[C@H](O)[C@H]1O)[C@H](O)[C@H](O)CCCCCCCCCCCCCC` [α-GalCer, α-Galactosylceramide, reference compound], the “anti-tumour activity: growth of established B16.OVA tumours” value with B16.OVA melanoma cells is “provides therapeutic anti-tumour activity”. In addition, the “SIINFEKL-specific T cell response in blood (adjuvant activity)” value in data set [3] is listed as “induces a population of SIINFEKL-specific T cells”. The “water solubility (in words)” value in data set [4] is reported as “low water solubility; also recorded: poor solubility”. In addition, in data set [5] (after injection, mice), the “time of peak IFN-γ level in serum” value came out at 12 h, the “time of peak IL-4 level in serum” value was in the range of 2 to 3 h and the “time of peak IL-12p70 level in serum” value was 6 h.
Regarding “(2S,3S,4R)-1-O-α-D-Galactopyranosyl-4-hexacosanoyl-2-((4-(2-methoxy(poly(2-ethoxy))imino)pentanoyloxy)methoxycarbonylamino) octadecane-1,3,4-triol [CN147]”, in data set [2] (setting [7]), the “Max α-GalCer (ppm)” value is 615 ppm and the “Max α-GalCer/injection” value is 0.123 ng. In the data set “Water solubility”, this compound showed a water solubility of about 0.5 mg/mL. Moreover, the “cytokine profile in vivo compared to α-GalCer” value in data set [5] (FIGS. 3 and 8) is recorded as “different cytokine profiles”. In data set [5] (200 ng i.v., FIG. 3), the “course of IL-12p70 level in serum” value is on record as “still increasing through 6 to 12 h” and the “ratio of IFN-γ to IL-4 in serum compared to α-GalCer” value is “higher ratio of IFN-γ to IL-4 than that of α-GalCer”.
As for “(2S,3S,4R)-1-O-α-D-Galactopyranosyl-4-hexacosanoyl-2-((4-(ω-methoxy(poly(ethyleneoxy))imino)pentanoyloxy)methyleneoxycarbonylamino) octadecane-1,3,4-triol [CN158]”, the “anti-tumour activity: growth of established B16.OVA tumours” value with B16.OVA melanoma cells is listed as “provides therapeutic anti-tumour activity”. For the same compound, in data set [2] (setting [7]), the “Max α-GalCer (ppm)” value is reported as 180 ppm and the “Max α-GalCer/injection” value is 0.25 ng. Besides, in data set [2] (setting [6]), the “Max α-GalCer (ppm)” value amounted to 170 ppm and the “Max α-GalCer/injection” value turned out to be 0.24 ng. Moreover, the “SIINFEKL-specific T cell response in blood (adjuvant activity)” value in data set [3] is on record as “induces a similar T cell expansion”. The water solubility in “Water solubility” is on record as about 38 mg/mL. Also, the “cytokine profile in vivo compared to α-GalCer” value in data set [5] (FIGS. 3 and 8) is “different cytokine profiles”. In addition, the “overall levels of systemic cytokine production” value in data set [5] (200 ng α-GalCer or equivalent i.v., FIGS. 3 and 8) is given as “no systemic cytokines are detected; also recorded: No detectable cytokines are observed”.

The record behind these values is patent US9586985B2, “Organic compounds as proantigens for natural killer T cells” (Callaghan Innovation Research Limited, priority 2012, dated 2017).
